Measurements published in patent US20100022559A1, “BISOXIMES AS FUNGICIDES” (BAYER CROPSCIENCE AG, priority 2006, published 2010).

Experiment: logP determination by HPLC on a reversed-phase column (C 18), EEC Directive 79/831 Annex V.A8
Assay type: physicochemical
Conditions: method marked [b] in Table 1
Method: The stated logP values were determined in accordance with EEC Directive 79/831 Annex V.A8 by HPLC (high performance liquid chromatography) on a reversed-phase column (C 18). Temperature: 43° C.

Q: Which logP does the source give for `Cc1cc(C)nc(/C(N)=N/OCc2cccc(CO/N=C(\N)c3cc(C)cc(C)n3)c2)c1` [compound 726] here?
A: 3.63^[b]

Q: With `CC(=NOc1ncnc(ON=C(C)c2cccc(C)n2)c1F)c1cccc(C)n1` [compound 727] as the molecule, how does the logP read?
A: 3.13^[b]

Q: Which logP does the source give for `CC(=NOc1ncnc(ON=C(C)c2cccc(C)n2)c1C)c1cccc(C)n1` [compound 728] here?
A: 2.34^[b]

Q: Which logP does the source give for `CC(=NOc1ncnc(ON=C(C)c2cccc(C)n2)c1Cl)c1cccc(C)n1` [compound 729] here?
A: 3.31^[b]

Q: For `CC(=NOCc1ccccc1CON=C(C)c1nc(C)c(C)s1)c1nc(C)c(C)s1` [compound 730], which logP is on record?
A: 5.71^[b]

Q: With `CC(=NOCc1cccc(CON=C(C)c2ccccn2)c1)c1ccccn1` [compound 731] as the molecule, how does the logP read?
A: 3.72^[b]

Q: With `CC(=NOCc1cccc(CON=C(C)c2nc(C)c(C)s2)c1)c1nc(C)c(C)s1` [compound 732] as the molecule, how does the logP read?
A: 5.71^[b]

Q: With `Cc1cc(C)nc(/C(N)=N/OCc2ccc(CO/N=C(\N)c3cc(C)cc(C)n3)cc2)c1` [compound 733] as the molecule, how does the logP read?
A: 3,59^[b]

Q: Which logP does the source give for `CC(=NOCc1ccc(CON=C(C)c2ccccn2)cc1)c1ccccn1` [compound 734] here?
A: 3.76^[b]

Q: For `Cc1cccc(C=NOCc2ccc(CON=Cc3cccc(C)n3)cc2)n1` [compound 735], which logP is on record?
A: 2.80^[b]

Q: Which logP does the source give for `CC(=NOCc1ccc(CON=C(C)c2nc(C)c(C)s2)cc1)c1nc(C)c(C)s1` [compound 736] here?
A: 5.84^[b]

Q: For `Cc1cccc(C=NOCC=CCON=Cc2cccc(C)n2)n1` [compound 737], which logP is on record?
A: 2.18^[b]

Q: Which logP does the source give for `CCC(=NOc1ncnc(ON=C(C)c2cccc(C)n2)c1C)c1ncccc1C` [compound 739] here?
A: 2.18^[b]

Q: Which logP does the source give for `CC(=NOCc1cccc(CON=C(C)c2ccc(C)c(C)n2)n1)c1ccc(C)c(C)n1` [compound 741] here?
A: 2.30^[b]

Q: For `CC(=NOC(=O)N(C)C(=O)ON=C(C)c1cccc(C)n1)c1cccc(C)n1` [compound 744], which logP is on record?
A: 2.57^[b]

Q: With `CCC(CC)(C(=O)ON=C(C)c1cccc(C)n1)C(=O)ON=C(C)c1cccc(C)n1` [compound 745] as the molecule, how does the logP read?
A: 4.49^[b]

Q: For `C=C(CON=C(Br)c1cccc(C)n1)CON=C(Br)c1cccc(C)n1` [compound 746], which logP is on record?
A: 4.41^[b]

Q: Which logP does the source give for `CC(=NOCCC(C)CCON=C(C)c1ccccn1)c1ccccn1` (stereo not drawn) [compound 747] here?
A: 4.43^[b]

Q: Which logP does the source give for `CC(=NOCC(C)CON=C(C)c1ccc2ccc(C)cc2n1)c1ccc2ccc(C)cc2n1` (stereo not drawn) [compound 748] here?
A: 7.36^[b]

Q: With `C=C(CON=C(C)c1ccc2ccc(C)cc2n1)CON=C(C)c1ccc2ccc(C)cc2n1` [compound 749] as the molecule, how does the logP read?
A: 7.36^[b]

Same assay, conditions: method marked [c] in Table 1

Q: With `CC(=NOc1ncnc(ON=C(C)c2cccc(C)n2)c1C)c1cccc(C)n1` [compound 728] as the molecule, how does the logP read?
A: 3.45^[c]

Q: For `CC(=NOCc1cccc(CON=C(C)c2ccc(C)c(C)n2)n1)c1ccc(C)c(C)n1` [compound 741], which logP is on record?
A: 5.08^[c]

Q: For `CC(=NOCc1cccc(CON=C(C)c2cc(C)cc(C)n2)n1)c1cc(C)cc(C)n1` [compound 742], which logP is on record?
A: 4.96^[c]

Q: For `CC(=NOCC(C)CON=C(C)c1ccc2ccc(C)cc2n1)c1ccc2ccc(C)cc2n1` (stereo not drawn) [compound 748], which logP is on record?
A: 7.36^[c]

Q: For `C=C(CON=C(C)c1ccc2ccc(C)cc2n1)CON=C(C)c1ccc2ccc(C)cc2n1` [compound 749], which logP is on record?
A: 7.36^[c]

Same assay, conditions: value marked [a]

Q: Which logP does the source give for `CC(=NOCC(C)CON=C(C)c1cc(Cl)cc(C)n1)c1cc(Cl)cc(C)n1` (stereo not drawn) [compound 792] here?
A: 7.36^[a]

Q: For `C=C(CON=C(Cl)c1cc(C)cc(C)n1)CON=C(Cl)c1cc(C)cc(C)n1` [compound 795], which logP is on record?
A: 4.62^[a]

Q: For `CC(=NOCC(C)(C)CON=C(C)c1cc(Cl)cc(C)n1)c1cc(Cl)cc(C)n1` [compound 804], which logP is on record?
A: 7.36^[a]

Same assay, conditions: value marked [b]

Q: For `Cc1cc(C)nc(C(N)=NOC/C=C\CON=C(N)c2nc(C)cc(C)n2)n1` [compound 773], which logP is on record?
A: 1.75^[b]

Q: With `Cc1nc(C(N)=NOC/C=C/CON=C(N)c2nc(C)c(Cl)c(C)n2)nc(C)c1Cl` [compound 774] as the molecule, how does the logP read?
A: 2.70^[b]

Q: For `Cc1nc(C(N)=NOC/C=C\CON=C(N)c2nc(C)c(Cl)c(C)n2)nc(C)c1Cl` [compound 775], which logP is on record?
A: 2.77^[b]

Q: With `Cc1cccc(C=NOCCCCON=Cc2cccc(C)n2)n1` [compound 776] as the molecule, how does the logP read?
A: 2.16^[b]

Q: For `CC(=NOC/C=C\CON=C(C)c1cccc(C)n1)c1cccc(C)n1` [compound 778], which logP is on record?
A: 3.31^[b]

Q: For `CC(=NOC/C=C/CON=C(C)c1ccccn1)c1ccccn1` [compound 781], which logP is on record?
A: 2.84^[b]

Q: For `C=C(CON=C(C#CC)c1cccc(C)n1)CON=C(C#CC)c1cccc(C)n1` [compound 803], which logP is on record?
A: 3.07^[b]

Same assay, conditions: value marked [c]

Q: With `CC(=NOCC(C)CON=C(C)c1cc(Cl)cc(C)n1)c1cc(Cl)cc(C)n1` (stereo not drawn) [compound 792] as the molecule, how does the logP read?
A: 7.36^[c]
